Experimental findings from article PMC4050187 (FEBS Open Bio, 2014) are described below.

The target in this test is T1, Cj0511His (Campylobacter jejuni, UniProt Q0PB04).
T1 sequence (Q0PB04 36-444): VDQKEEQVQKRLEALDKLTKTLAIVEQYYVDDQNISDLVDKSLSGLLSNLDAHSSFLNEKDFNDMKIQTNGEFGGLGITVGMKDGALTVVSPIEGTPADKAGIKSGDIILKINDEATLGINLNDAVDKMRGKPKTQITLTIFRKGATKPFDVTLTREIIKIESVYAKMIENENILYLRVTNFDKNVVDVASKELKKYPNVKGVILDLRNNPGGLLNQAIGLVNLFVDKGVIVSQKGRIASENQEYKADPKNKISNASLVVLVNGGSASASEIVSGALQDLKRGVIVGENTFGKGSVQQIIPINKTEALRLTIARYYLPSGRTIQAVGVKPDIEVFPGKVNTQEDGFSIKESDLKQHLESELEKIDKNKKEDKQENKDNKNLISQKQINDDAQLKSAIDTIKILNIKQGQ
As to the kind of experiment: colorimetric protease screening kit, absorbance at […] nm. It counts as biochemical. Conditions: 1 mM inhibitor, 37 °C, 3 h, 0.25 μg protein in 50 μl.

As to `NCCc1ccc(S(=O)(=O)F)cc1` [AEBSF], the “reduction in activity at 1 mM” value was “reduction in activity in the presence of antipain, aprotin, AEBSF and PMSF inhibitors”.
